The target of one assay is Carbonic anhydrase 12 (Homo sapiens, UniProt O43570). Nature of the assay: Inhibition of human recombinant carbonic anhydrase 12 expressed in Escherichia coli preincubated for 6 hrs by stopped flow CO2 hydrase assay.
The target of a further assay is Carbonic anhydrase 1 (Homo sapiens, UniProt P00915). Nature of the assay: Inhibition of human recombinant carbonic anhydrase 1 expressed in Escherichia coli preincubated for 6 hrs by stopped flow CO2 hydrase assay.
In a further assay the target is Carbonic anhydrase 9 (Homo sapiens, UniProt Q16790).
Another assay deals with Carbonic anhydrase 2 (Homo sapiens, UniProt P00918). The assay can be described thus: Inhibition of human recombinant carbonic anhydrase 2 expressed in Escherichia coli preincubated for 6 hrs by stopped flow CO2 hydrase assay.

Results on 14 molecules are retold here after ChEMBL document CHEMBL3632485 (Eur J Med Chem, 2015).

Sequence of Carbonic anhydrase 12 (O43570 whole entry): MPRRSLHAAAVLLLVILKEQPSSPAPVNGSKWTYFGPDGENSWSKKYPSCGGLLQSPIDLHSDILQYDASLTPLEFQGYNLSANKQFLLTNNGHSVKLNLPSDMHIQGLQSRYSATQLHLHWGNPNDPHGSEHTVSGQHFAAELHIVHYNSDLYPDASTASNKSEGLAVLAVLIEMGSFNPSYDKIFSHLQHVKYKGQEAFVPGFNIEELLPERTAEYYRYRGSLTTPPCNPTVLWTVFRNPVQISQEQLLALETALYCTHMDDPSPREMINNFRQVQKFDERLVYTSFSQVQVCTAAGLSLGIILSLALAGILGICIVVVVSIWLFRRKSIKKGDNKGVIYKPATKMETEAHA
Sequence of Carbonic anhydrase 1 (P00915 whole entry): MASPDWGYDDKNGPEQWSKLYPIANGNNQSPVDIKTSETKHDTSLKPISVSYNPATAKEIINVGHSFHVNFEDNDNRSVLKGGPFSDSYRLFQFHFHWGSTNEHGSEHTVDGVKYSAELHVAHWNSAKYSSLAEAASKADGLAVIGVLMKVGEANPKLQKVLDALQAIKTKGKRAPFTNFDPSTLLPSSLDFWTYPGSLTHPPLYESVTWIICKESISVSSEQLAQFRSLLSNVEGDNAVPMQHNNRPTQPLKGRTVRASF
Description for Carbonic anhydrase 9: Inhibition of human recombinant carbonic anhydrase 9 expressed in Escherichia coli preincubated for 6 hrs by stopped flow CO2 hydrase assay

For orientation: Ki means a measure of affinity in units of concentration, obtained from inhibition or displacement. Consider `NS(=O)(=O)c1ccc(-n2ncc(C(=O)N/N=C3\C(=O)N(Cc4ccccc4)c4ccccc43)c2-c2ccccc2)cc1`, for which the inhibitory constant (Ki) at Carbonic anhydrase 12 amounted to 6.5 nM.
On to `Nc1c(C(=O)N/N=C2\C(=O)Nc3ccc([N+](=O)[O-])cc32)cnn1-c1ccc(S(N)(=O)=O)cc1`, for which the Ki on Carbonic anhydrase 1 amounted to 70.4 nM; on Carbonic anhydrase 9 it was 7.4 nM; at Carbonic anhydrase 2, 23.1 nM; on Carbonic anhydrase 12 it was 5.4 nM.
For the molecule `NS(=O)(=O)c1ccc(-n2ncc(C(=O)N/N=C3\C(=O)Nc4ccccc43)c2-c2ccccc2)cc1`, the Ki at Carbonic anhydrase 9 was found to be 52.9 nM.
On Carbonic anhydrase 9, `Nc1c(C(=O)N/N=C2\C(=O)Nc3ccccc32)cnn1-c1ccc(S(N)(=O)=O)cc1` registered a Ki of 2.8 nM.
In the case of `Nc1c(C(=O)N/N=C2\C(=O)Nc3ccc(Cl)cc32)cnn1-c1ccc(S(N)(=O)=O)cc1`, affinity on Carbonic anhydrase 9 was put at a Ki of 2.5 nM.
Still for that read-out and setting: with `NS(=O)(=O)c1ccc(-n2ncc(C(=O)N/N=C3\C(=O)Nc4ccc(Cl)cc43)c2-c2ccccc2)cc1` the figure was 9.7 nM; with `Nc1c(C(=O)N/N=C2\C(=O)Nc3ccc(Br)cc32)cnn1-c1ccc(S(N)(=O)=O)cc1`, 9.4 nM.
The molecule `COc1ccc2c(c1)/C(=N/NC(=O)c1cnn(-c3ccc(S(N)(=O)=O)cc3)c1N)C(=O)N2` came in with a Ki at Carbonic anhydrase 9 of 3.5 nM.
On the same count and under the same terms, with `Cc1ccc2c(c1)/C(=N/NC(=O)c1cc(-c3ccccc3)n(-c3ccc(S(N)(=O)=O)cc3)n1)C(=O)N2` the figure was 4.7 nM; with `NS(=O)(=O)c1ccc(-n2nc(C(=O)N/N=C3\C(=O)Nc4ccccc43)cc2-c2ccccc2)cc1`, 8.8 nM.
The molecule `NS(=O)(=O)c1ccc(-n2nc(C(=O)N/N=C3\C(=O)Nc4ccc(Cl)cc43)cc2-c2ccccc2)cc1` registered a Ki at Carbonic anhydrase 9 of 7.4 nM.
Same read-out and setting: with `NS(=O)(=O)c1ccc(-n2ncc(C(=O)N/N=C3\C(=O)Nc4ccc([N+](=O)[O-])cc43)c2-c2ccccc2)cc1` the figure was 15.7 nM; with `NS(=O)(=O)c1ccc(-n2ncc(C(=O)N/N=C3\C(=O)Nc4ccc(Br)cc43)c2-c2ccccc2)cc1`, 7.8 nM.
`NS(=O)(=O)c1ccc(-n2nc(C(=O)N/N=C3\C(=O)Nc4ccc(Br)cc43)cc2-c2ccccc2)cc1`: on Carbonic anhydrase 9, the affinity, expressed as Ki, was 20 nM.
